Results on 25 molecules are retold here after US10030016B2 (Sunesis Pharmaceuticals, Inc., priority 2009, dated 2018).

Assay [1] addresses PDK1 (Homo sapiens (Human), UniProt O15530). The assay is described as follows: PDK1 kinase assay (coupled PDK1/AKT/FAM-crosstide assay, IMAP fluorescence polarization). It counts as biochemical. An outline of the steps:
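GST-tagged PDK1 (aa 51-359, 0.75 nM) was coupled to unphosphorylated GST-AKT2 140-467-PIFtide (10 nM) and 100 nM FAM-crosstide at 40 μM ATP, in Tris pH 7.2 buffer, for 30 min at 25 °C. Crosstide phosphorylation was read by IMAP fluorescence polarization (ΔmP) and fitted with a 4-parameter curve.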
(In general: Fluorescence polarisation rises when a labelled molecule tumbles more slowly, as on binding a larger partner.)

The test system of assay [2] is phospho-akt (Thr308) in PC-3 cells. Kind of assay: Inhibition of phospho-akt (Thr308) in PC-3 cells, MSD phospho-akt 308 ELISA kit. The class given is cell-based. The note with it: Homo sapiens, 2 hours, no serum, read-out: EC50. An outline of the steps: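 PC-3 cells (15,000/well, overnight in 10% FBS medium) treated 2 h with three-fold diluted compounds in serum-free medium; DMSO high and 5 μM wortmannin low controls. Lysates captured on BSA-blocked MSD plates overnight at 4 °C, then 1 h antibody detection at RT; phospho-Akt Thr308 read by MSD electrochemiluminescence.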
(In general: An ELISA detects its analyte on a solid surface through an enzyme-linked reagent.)

[3] abbreviates: inhibition of phospo-PDK1 in vitro.
Setting [4] is: inhibition of P308 Akt in PC-3 cells, MSD.
Where [5] appears, read: inhibition of P308 Akt in PC-3 cells using MSD.
[6] abbreviates: PC-3, 2 h, inhibition of P308 Akt in PC-3 cells, MSD.

pEC50, pIC50: −log10 of the molar value. Structures can show the parent of a compound that is named as a salt. Where two headings read alike, the source gives them in different places.

Sequence of PDK1 (O15530 51-359): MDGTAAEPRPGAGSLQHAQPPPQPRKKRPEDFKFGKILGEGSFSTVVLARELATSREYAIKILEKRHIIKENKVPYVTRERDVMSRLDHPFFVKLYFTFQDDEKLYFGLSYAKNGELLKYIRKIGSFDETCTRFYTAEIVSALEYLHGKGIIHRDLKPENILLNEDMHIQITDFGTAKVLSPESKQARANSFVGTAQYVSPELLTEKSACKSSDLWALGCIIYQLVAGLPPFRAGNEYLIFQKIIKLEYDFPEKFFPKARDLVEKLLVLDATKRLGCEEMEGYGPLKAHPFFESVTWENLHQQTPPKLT

`C[C@@H](c1ccc(F)c(F)c1)n1cnc2c(C#N)cnc(NCc3ccc(-c4ccc5ncnc(N)c5c4)s3)c2c1=O` [Ex. 7.25, (S)-5-(((5-(4-aminoquinazolin-6-yl)thiophen-2-yl)methyl)amino)-3-(1-(3,4-difluorophenyl)ethyl)-4-oxo-3,4-dihydropyrido[4,3-d]pyrimidine-8-carbonitrile] had a pIC50 in assay [1] (setting [3]) of more than 7.00. For the same molecule, the negative-log EC50 (pEC50) in assay [2] (setting [4]) was more than 6.00.
Taken in the same sequence, the figures for `CNS(=O)(=O)c1cnc(NCc2ccc(-c3ccc4ncnc(N)c4c3)s2)c(C(=O)N[C@@H](C)c2ccc(F)c(F)c2)c1` [Example 8.7.4, 2-({[5-(4-aminoquinazolin-6-yl)thiophen-2-yl]methyl}amino)-N-[(1S)-1-(3,4-difluorophenyl)ethyl]-5-(methylsulfamoyl) pyridine-3-carboxamide] were more than 7.00 and more than 6.00.
Taken in the same sequence, the figures for `Cn1nc(Nc2ncccc2C(=O)NCc2ccc(F)c(F)c2)c2cc(-c3ccc4ncnc(N)c4c3)ccc21` [Example 14.2, 2-(5-(4-aminoquinazolin-6-yl)-1-methyl-1H-indazol-3-ylamino)-N-(3,4-difluorobenzyl)-nicotinamide] were more than 7.00 and less than 5.00.
In assay [1] (setting [3]), `Nc1ncnc2ccc(-c3ccc(CNc4ncccc4C(=O)Nc4ccccc4Cl)s3)cc12` [Example 3.31, 2-({[5-(4-aminoquinazolin-6-yl)thiophen-2-yl]methyl}amino)-N-(2-chlorophenyl)pyridine-3-carboxamide (TFA salt)] gave a pIC50 of less than 5.30. For the same molecule, in assay [2] (setting [4]), the pEC50 is less than 5.00.
For the molecule `C[C@H](NC(=O)c1cc(C#N)cnc1NCc1ccc(-c2nn(C)c3ncnc(N)c23)cc1)c1ccc(F)cc1` [Example 98, (S)-2-(4-(4-amino-1-methyl-1H-pyrazolo[3,4-d]pyrimidin-3-yl)benzylamino)-5-cyano-N-(1-(4-fluorophenyl)ethyl)nicotinamide], the pIC50 in assay [1] (inhibition of PDK1 in vitro) is more than 7.00. Also, in assay [2] (setting [5]), the pEC50 was 5.00 to 6.00.
In the case of `C[C@H](NC(=O)c1cccnc1NCc1ccc(-c2cn(C3CCC3)c3ncnc(N)c23)s1)c1ccc(F)cc1` [Example 345], the negative logarithm of the IC50 (pIC50) in assay [1] (inhibition of PDK1 in vitro) is 6.00 to 7.00. Besides, the pEC50 in assay [2] (PC-3, 2 h, inhibition of P308 Akt in PC-3 cells using MSD) is more than 6.00.
Regarding `N#Cc1cnc(NCc2ccc(-c3ccc(N)nc3)cc2)c(C(=O)NCc2cncc(F)c2)c1` [Example 310, 2-(4-(6-aminopyridin-3-yl)benzylamino)-5-cyano-N-((5-fluoropyridin-3-yl)methyl)nicotinamide], the pIC50 in assay [1] (inhibition of PDK1 in vitro) is more than 7.00. For the same molecule, in assay [2] (setting [5]), the pEC50 is more than 6.00.
`N#Cc1cnc(NCc2ccc(-c3cnc(N)cn3)cc2)c(C(=O)Nc2ccc(F)cc2)n1` [Example 34, 3-(4-(5-aminopyrazin-2-yl)benzylamino)-6-cyano-N-(4-fluorophenyl) pyrazine-2-carboxamide] had a pIC50 in assay [1] (setting [3]) of more than 7.00. Besides, in assay [2] (setting [4]), the negative logarithm of the EC50 (pEC50) was more than 6.00.
Taken in the same sequence, the figures for `C=C(C)c1cnc(NCc2ccc(-c3ccc4ncnc(N)c4c3)s2)c(C(=O)NCc2ccc(F)c(F)c2)c1` [Ex. 8.13, 2-({[5-(4-aminoquinazolin-6-yl)thiophen-2-yl]methyl}amino)-N-(3,4-difluorobenzyl)-5-(prop-1-en-2-yl)pyridine-3-carboxamide] were more than 7.00 and more than 6.00.
Taken in the same sequence, the figures for `C[C@H](NC(=O)c1cccnc1NCc1ccc(-c2cn(C)c3ncnc(N)c23)cc1)c1ccc(F)c(F)c1` [Example 2.38, 2-[4-(4-Amino-7-methyl-7H-pyrrolo[2,3-d]pyrimidin-5-yl)-benzylamino]-N-[(S)-1-(3,4-difluoro-phenyl)-ethyl]-nicotinamide] were more than 7.00 and 5.00 to 6.00.
In assay [1] (inhibition of PDK1 in vitro), `C[C@@H](Nc1ncc(C(F)(F)F)cc1C(=O)Nc1ccc(F)cc1)c1ccc(-c2c[nH]c3ncnc(N)c23)cc1` [Example 433, 2-{(R)-1-[4-(4-Amino-7H-pyrrolo[2,3-d]pyrimidin-5-yl)-phenyl]-ethylamino}-N-(4-fluoro-phenyl)-5-trifluoromethyl-nicotinamide] gave a pIC50 of more than 7.00. In assay [2] (setting [5]), the pEC50 was 5.00 to 6.00.
For the molecule `N#Cc1cnc(NCc2ccc(-c3ccc4ncnc(N)c4c3)s2)c(C(=O)NCc2ccc(F)c(F)c2)n1` [Example 3.80, 3-(((5-(4-aminoquinazolin-6-yl)thiophen-2-yl)methyl)amino)-6-cyano-N-(3,4-difluorobenzyl)pyrazine-2-carboxamide (TFA salt)], the pIC50 in assay [1] (setting [3]) is 6.00 to 7.00. The pEC50 in assay [2] (setting [4]) was more than 6.00.
Taken in the same sequence, the figures for `C[C@H](NC(=O)c1nccnc1NCc1ccc(-c2ccc3ncnc(N)c3c2)s1)c1ccc(F)c(F)c1` [Example 3.77, 3-({[5-(4-aminoquinazolin-6-yl)thiophen-2-yl]methyl}amino)-N-[(1S)-1-(3,4-difluorophenyl)ethyl] pyrazine-2-carboxamide (TFA salt)] were more than 7.00 and more than 6.00.
In assay [1] (inhibition of PDK1 in vitro), `C[C@H](NC(=O)c1cc(C#N)cnc1NCC1CCN(c2cnc(N)cn2)CC1)c1ccc(F)cc1` [Example 61, (S)-2-(((1-(5-aminopyrazin-2-yl)piperidin-4-yl)methyl)amino)-5-cyano-N-(1-(4-fluorophenyl)ethyl)nicotinamide] showed a pIC50 of 5.30 to 6.00. Also, the pEC50 in assay [2] (setting [5]) is less than 5.00.
`CC(C)Oc1cc(CNc2ncccc2C(=O)NCC2CC2)cc(-c2c[nH]c3ncc(C(=O)NC4CC4)cc23)c1` [Example 4.1.11, N-cyclopropyl-3-{3-[({3-[(cyclopropylmethyl)carbamoyl]pyridin-2-yl}amino)methyl]-5-(propan-2-yloxy)phenyl}-1H-pyrrolo[2,3-b] pyridine-5-carboxamide] had a pIC50 in assay [1] (setting [3]) of 6.00 to 7.00. The pEC50 in assay [2] (setting [4]) is 5.00 to 6.00.
Turning to `C[C@@H](Nc1ncc(C(F)(F)F)nc1C(=O)Nc1ccc(F)cc1)c1ccc(-c2cnc3[nH]nc(N)c3c2)cc1` [Example 421, (R)-3-(1-(4-(3-amino-1H-pyrazolo[3,4-b]pyridin-5-yl)phenyl)ethylamino)-N-(4-fluorophenyl)-6-(trifluoromethyl)pyrazine-2-carboxamide], in assay [1] (inhibition of PDK1 in vitro), the pIC50 is more than 7.00. The pEC50 in assay [2] (setting [5]) is more than 6.00.
Taken in the same sequence, the figures for `C[C@H](NC(=O)c1cc(C#N)cnc1NCc1ccc(-c2cnc(N)c(C(=O)N3CCNCC3)n2)cc1)c1ccc(F)cc1` [Example 221, 2-{4-[5-Amino-6-(piperazine-1-carbonyl)-pyrazin-2-yl]-benzylamino}-5-cyano-N-[(S)-1-(4-fluoro-phenyl)-ethyl]-nicotinamide] were more than 7.00 and 5.00 to 6.00.
`C[C@H](NC(=O)c1cccnc1NCc1ccc(-c2ccc3nccnc3c2)s1)c1ccc(F)c(F)c1` [Example 4.31]: the pIC50 in assay [1] (setting [3]) is less than 5.30. Moreover, the pEC50 in assay [2] (setting [4]) is less than 5.00.
Consider `O=C(Nc1ccc(F)c(F)c1)c1cccnc1NCc1cccc(-c2c[nH]c3ncccc23)c1` [Example 1.14, N-(3,4-difluorophenyl)-2-{[3-(1H-pyrrolo[2,3-b]pyridin-3-yl)benzyl]amino}pyridine-3-carboxamide], for which, in assay [1] (setting [3]), the pIC50 is 6.00 to 7.00. Besides, the pEC50 in assay [2] (setting [6]) was 5.00 to 6.00.
The molecule `N#Cc1cnc(N[C@@H](COc2ccc3[nH]c(=O)[nH]c3c2)c2ccccc2)c(C(=O)NCc2ccc(F)cc2)n1` [Example 16.12, (R)-6-cyano-N-(4-fluorobenzyl)-3-(2-(2-oxo-2,3-dihydro-1H-benzo[d]imidazol-5-yloxy)-1-phenylethylamino) pyrazine-2-carboxamide] showed a pIC50 in assay [1] (setting [3]) of more than 7.00. Further, the pEC50 in assay [2] (setting [4]) was more than 6.00.
Taken in the same sequence, the figures for `CC(C)(C)NS(=O)(=O)c1cnc(NCc2ccc(-c3ccc4ncnc(N)c4c3)s2)c(C(=O)NCc2ccc(F)c(F)c2)c1` [Example 8.6.20, 2-(((5-(4-aminoquinazolin-6-yl)thiophen-2-yl)methyl)amino)-5-(N-tert-butylsulfamoyl)-N-(3,4-difluorobenzyl)nicotinamide] were 6.00 to 7.00 and less than 5.00.
`C[C@H](NC(=O)c1cc(C#N)cnc1NCc1cnc(-c2cnc3[nH]ncc3c2)cn1)c1ccc(F)cc1` [Example 63, 5-Cyano-N-[(S)-1-(4-fluoro-phenyl)-ethyl]-2-{[5-(1H-pyrazolo[3,4-b]pyridin-5-yl)-pyrazin-2-ylmethyl]-amino}-nicotinamide] gave a negative-log IC50 (pIC50) in assay [1] (inhibition of PDK1 in vitro) of more than 7.00. Moreover, the pEC50 in assay [2] (setting [5]) was less than 5.00.
As for `C[C@H](NC(=O)c1cc(C#N)cnc1NCc1ccc(-c2cnc3[nH]c(=O)[nH]c3c2)cc1)c1ccc(F)cc1` [Example 116, (S)-5-cyano-N-(1-(4-fluorophenyl)ethyl)-2-(4-(2-oxo-2,3-dihydro-1H-imidazo[4,5-b]pyridin-6-yl)benzyl-amino)nicotinamide], the pIC50 in assay [1] (inhibition of PDK1 in vitro) is more than 7.00. Moreover, the negative logarithm of the EC50 (pEC50) in assay [2] (setting [5]) is more than 6.00.
As for `CN(C)CCNC(=O)c1cnc(NCc2ccc(-c3ccc4ncnc(N)c4c3)s2)c(C(=O)NCc2ccc(F)c(F)c2)c1` [Example 7.24.2, 2-({[5-(4-aminoquinazolin-6-yl)thiophen-2-yl]methyl}amino)-N^3-(3,4-difluorobenzyl)-N^5-[2-(dimethylamino)ethyl] pyridine-3,5-dicarboxamide], the pIC50 in assay [1] (setting [3]) is 6.00 to 7.00. Moreover, the pEC50 in assay [2] (setting [6]) is 5.00 to 6.00.
In the case of `CC[C@H](NC(=O)c1cccnc1NCc1ccc(-c2ccc3ncnc(N)c3c2)s1)c1cccc(F)c1` [Example 3.42, (S)-2-((5-(4-aminoquinazolin-6-yl)thiophen-2-yl)methylamino)-N-(1-(3-fluorophenyl)propyl) nicotinamide (TFA salt)], the pIC50 in assay [1] (setting [3]) was 6.00 to 7.00. Besides, in assay [2] (setting [4]), the pEC50 was less than 5.00.

As usually defined, the pIC50 is −log10 of the IC50, conventionally taken in molar units. As usually defined, the pEC50 is −log10 of the EC50, conventionally taken in molar units.
